Measurements reported in US12161114B2, “Overpowered ABA receptor agonists” (The Regents of the University of California, priority 2018, dated 2024).

What was measured:
[1] = system: wild type Columbia Arabidopsis thaliana seeds; assay: Arabidopsis seed germination assay; format: in vivo
Procedure: Prior to selecting a scaffold for optimization we conducted Arabidopsis seed germination assays to establish if the hits obtained are activity in vivo. Germination experiments were performed with surface sterilized wild type Columbia Arabidopsis thaliana seeds and abi1C (the abi1-1 allele isolated in the Columbia ecotype) plated onto 0.7% agar medium containing 1/2-x MS salts, 0.5% sucrose and differing concentrations of the test compounds. After 4d of stratification at 4° C., the plates were transferred to a growth chamber under continuous illumination and evaluated after 4 days.
To establish if the in vitro potency of Opa translates into improved activity in vivo, we measured the effects of ABA, QB, AMF4, Opa and 2e on Arabidopsis seed germination at a range of concentrations to infer quantitative measures or potency. Methods similar to that described in Example 3 are followed. The percentage of germinated seeds were recorded for each chemical treatment for each concentration in quadruplicate. EC50 values denote the concentrations at which 50% of seeds have been inhibited.

wheat seedlings = assay: thermal imaging of leaf temperature (anti-transpirant activity), wheat; format: in vivo, Triticum aesitivum
Procedure: To evaluate the effects of the optimized ligands on transpiration, we performed quantitative thermal imaging of 2 week old wheat seedlings (var. Cal Rojo) after chemical or mock treatments. Each pot contained 15 seedlings and was treated as a single replicate for a total of n=4. Seedlings were treated with 10 mL aerosolized solutions containing compounds of interest dissolved in 0.5% DMSO and 0.05% Silwet-77 (Lehle seeds). Thermal images were collected using a FLIR T62101 camera ˜24 hours post treatment. Average leaf temperatures were obtained by averaging the temperatures measured from between 10-15 ˜1 cm^2 area spots from the 15 plants sowed in each replicate pot.
To gain more detailed comparisons of the potency and persistence of different ABA agonists, we treated wheat seedlings (var. WB9229) with a range of agonist concentrations (mock, 11, 33, 100, 300 μM) and collected leaf temperature data at 24 hour intervals for 5 days. Mock treated samples were analyzed with 10 replicates and chemical treatments with 5 replicates. […] The corrected p-values for treatment effects at all time points is summarized in the inset table and highlighted yellow if a significant increase in leaf temperature was observed.

[2] = system: Arabidopsis pMAPKKK18-Luc+ reporter strain seedlings; assay: ABA reporter gene luminescence assay; format: in vivo; settings: 25 μM, 6-hours post-treatment
Procedure: Liquid grown Arabidopsis […]18-Luc+ reporter strain seedlings were treated with 25 μM test compounds or a mock control and 100 μM luciferin. Luminescence images were captured 6-hours post-treatment.

N#Cc1c(C2CC2)cc(CC(=O)NC2(C(=O)O)CCCCC2)cc1C1CC1 [2f, 1-[2-(4-cyano-3,5-dicyclopropylphenyl)acetamido]cyclohexane-1-carboxylic acid]
test concentration (twice the EC50 for germination inhibition) ([1]; Arabidopsis thaliana, printed value is twice the EC50, used as test concentration on mutants, read-out: twice the concentrations determined as its EC50 (inhibition of germination) (converted)): 60 nM | fold more active than either QB or AMF4 in seed germination inhibition ([1]; in vivo): > 10 x | inhibition of Arabidopsis seed germination (in words) ([1]; in vivo): potently inhibits seed germination | anti-transpirant activity (leaf temperature) (wheat seedlings; var. Cal Rojo, 50 μM, ~24 hours post treatment): highly efficacious anti-transpirant | thermal response, potency and persistence (wheat seedlings; var. WB9229, 11, 33, 100, 300 μM, 24 hour intervals for 5 days): potent and persistent thermal response | induction of ABA-transcriptional responses (luminescence) [2]: effective inducer of ABA-transcriptional responses
